Data reported in patent US20100239568A1, “DIAGNOSTICS AND TREATMENTS FOR TUMORS” (GENENTECH, INC., priority 2006, published 2010).

How the values were obtained:
B16F1 tumors = assay: Tumor growth of B16F1 tumors in mice; type: in vivo, mouse; settings: B16F1 in C57BL/6; compared to anti-VEGF treatment; day 17
Description: (§1) Cell Lines. The EL4, LLC, B16F1 and TIB6 (J558) tumor cell lines were obtained from American Type Culture Collection (ATCC) and maintained in tissue culture in high glucose Dulbecco's Modified Medium (DMEM) and supplemented with 10% fetal bovine serum (FBS) and 2 mM glutamine. The terms “B16F1” and “B16” are used interchangeably herein to refer to the same melanoma cell line.
(§2) Antibodies. Anti-VEGF, such as G6-23, is an antibody that binds to and neutralizes murine and human forms of VEGF. Derived from phage display technology, the IgG portion comprised murine isotype IgG2a (see, e.g., Malik, A. K. et al. Redundant roles of VEGF-B and P1GF during selective VEGF-A blockade in mice. Blood 107:550-7 (2006)) and was dosed at 10 mg/kg, IP, twice weekly unless indicated otherwise. Isotype-matched control antibody was anti-human ragweed-IgG2a (Genentech, Inc.). Anti-CD11b+ antibody (eBioSciences), anti-L-selectin (BD BioSciences) and anti-CXCR4 (Torrey Pines Lab) were used in FACS experiments. […] Tumor measurement was performed twice/week and terminal tumor weights were determined as described above. […]
(§3) B16F1 admixing experiments. […] Tumor size was assessed using Vernier calipers 2-3 times per week after tumors reached a palpable size. Tumor volume was determined using the Pi/6×L×W×W formula with L as the longest diameter and W the diameter at the position perpendicular to L. […]

TIB6 tumors = assay: Tumor growth of TIB6 tumors in mice; type: in vivo, mouse; settings: TIB6 in C57BL/6; 5FU 50 mg/kg once a week, Gemcitabine 120 mg/kg twice a week, IP; day 17
Description: as §1
Antibodies. Anti-VEGF, such as G6-23, is an antibody that binds to and neutralizes murine and human forms of VEGF. Derived from phage display technology, the IgG portion comprised murine isotype IgG2a (see, e.g., Malik, A. K. et al. Redundant roles of VEGF-B and P1GF during selective VEGF-A blockade in mice. Blood 107:550-7 (2006)) and was dosed at 10 mg/kg, IP, twice weekly unless indicated otherwise. Isotype-matched control antibody was anti-human ragweed-IgG2a (Genentech, Inc.). […] Tumor measurement was performed twice/week and terminal tumor weights were determined as described above.
B16F1 admixing experiments. […] Tumor size was assessed using Vernier calipers 2-3 times per week after tumors reached a palpable size. Tumor volume was determined using the Pi/6×L×W×W formula with L as the longest diameter and W the diameter at the position perpendicular to L.
Chemotherapy. […] Tumor volume was measured twice a week and was calculated as described.

LLC tumors = assay: Tumor growth of LLC tumors in mice; type: in vivo, mouse; settings: LLC in C57BL/6; 5FU 50 mg/kg once a week, Gemcitabine 120 mg/kg twice a week, IP; day 17
Description: as §1, §2, §3

CD11b+Gr1+ cells = assay: Flow cytometry of myeloid cells in tumor, bone marrow and peripheral blood of treated mice; type: in vivo, mouse; settings: for CD11b+Gr1+ cells in B16F1 tumors after chemotherapy: tumor isolates after 17 days
Description: Flow cytometry. Tumors of control and anti-VEGF-treated mice were isolated and single cell suspension was generated by chopping of tumor tissues followed by treatment with a cell homogenizer (VWR). BMMNCs were flushed from femur and tibia of implated animals and underwent RBC lysis using ACK lysis buffer (Cambrex, Mass.). Peripheral blood was collected by retro-orbital bleed and 40 μl of peripheral blood was pre-treated with ACK buffer for red blood cells lysis.
Cells from BM, tumor or peripheral blood were stained with a series of monoclonal antibodies including, CD11b, Gr1, CD19, CD90, VEGFR2, CXCR4, L-Selectin2 (all from BD BioSciences, CA), VEGFR1 (R&D, CA), Tie2 (eBioSciences, CA) along with appropriate isotype control to investigate the myeloid and lymphoid fractions in each compartment. FACS data were acquired on FACS calibur and analyzed by Cell Quest Pro software (BD Biosciences).
To isolate GFP+ cells and/or CD11b+Gr1+, single cell suspension was provided from the bone marrow or tumors of implanted mice. Cells and were stained with anti-CD11b conjugated to APC and anti-Gr1 conjugated to PE. Populations of GFP, GFP−, CD11b+Gr1+ and CD11b−Gr1− cells were isolated in a FACS Vantage machine and post-sort analysis ensured the purity of the population of interest in each compartment.

EL4 tumors [1] = assay: Tumor growth of EL4 tumors in mice; type: in vivo, mouse; settings: EL4 in C57BL/6; 5FU 50 mg/kg once a week, Gemcitabine 120 mg/kg twice a week, IP; day 17
Description: as §1, §2, §3

EL4 tumors [2] = assay: In vivo treatment with clodronate liposomes and anti-VEGF, EL4 tumor volume; design: species or system mouse; settings: mice bearing resistant tumors
Description: In vivo treatment to examine for macrophage depletion and tumor expression: EL4, the murine lymphocyte leukemia cell line, was used. Treatment was started 48 hours after implanting EL4 tumor cells (5×10^6, 0.1 ml vol. in matrigel) in nude mice. Treatment was as follows: Group 1: 8 mice, twice a week PBS-liposome 200 μl IV and Ragweed IgG 2×5 mg/kg/week 100 μl ip.; Group 2: 8 mice, twice a Week: PBS-liposome 200 μl IV and G6-31 2×5 mg/kg/week 100 μl ip.; Group 3: 8 mice, twice a week: Clodronate-liposome 200 μl IV. Ragweed IgG 2×5 mg/kg/week 100 μl ip.; Group 4: 8 mice twice a week: Clodronate-liposome 200 μl IV. G6-31 2×5 mg/kg/week 100 μl ip. Group 5: 8 mice twice a week: Clodronate-liposome 200 μl Iv. PBS twice a week 100 μl ip. 3 mice of each group were pre-bled for 50 μl of whole blood for FACS macrophage cell population evaluation. 3 mice of each group were bled (optical) for 100 μl of whole blood at 1 hour after each PBS-liposome or Clodronate-liposome injection for FACS analysis. The study continued until sufficient tumor growth (not beyond 5 weeks). Tumor growth was defined as sufficient if a tumor was greater than 20 mm in length. Tumor size was measured weekly (1×w×h). […] At the endpoint of the experiment the animals were sacrificed, the tumors, measured one final time then extracted, weighed and then fixed. […]

HUVEC cells = assay: Angiogenic sprouting and capillary lumen formation assay; type: cell-based, human; settings: 1.25 μg/ml with D551 fibroblasts, day 10
Description: See FIG. 13, Panel A and Pane B on day 10. In the assays, HUVEC cells were thawed at low passage number a day before the cells were coated on beads. The cells were detached at about 80% confluency and coated on cytodex microbeads (a cross-linked dextran matrix) with HUVEC (400 cells/bead) for 4 hours at 37° C. Beads and free HUVEC cells were transferred to a flask and cultured overnight. The beads were detached and they were mixed with fibrinogen (bovine plasma) (250 μg/ml). Fibrinogen was then converted to insoluble fibrin gel by adding thrombin. There are about 100 beads/12-well plate. The beads were cultured with 40,000 D551 fibroblasts and VEGF as positive controls, D551 or VEGF as negative controls, MCP-1 and D551, or MIP-1alpha and D551. The media was changed everyday. The cultures were stained with biotinylated anti-human CD31 and Cy3 streptavidin overnight with extensive washes. Pictures were taken at 60 hours, 6 days and 10 days.

[3] = test system: human cancers, including renal and ovarian carcinomas; settings: clinical evaluation; cited from earlier work
xenograft models = settings: most xenograft models tested; cited from earlier work

Molecule | tumor response to chemotherapy (tumor volume) (B16F1 tumors) | tumor response to chemotherapy (tumor volume) (TIB6 tumors) | tumor response to chemotherapy (tumor volume) (LLC tumors) | CD11b+Gr1+ cells in B16F1 tumors after chemotherapy (CD11b+Gr1+ cells) | tumor response to chemotherapy (tumor volume) (EL4 tumors [1]) | angiogenic activity (sprouting and capillary lumen formation) (HUVEC cells) | further results
O=c1[nH]cc(F)c(=O)[nH]1 [5FU, 5-Fluorouracil] | resistance | completely sensitive | complete response | lack of CD11b+Gr1+ cells | complete response | – | BM CD11b+Gr1+ cells after chemotherapy (CD11b+Gr1+ cells; bone marrow, all tumor types): complete exhaustion
Nc1ccn([C@@H]2O[C@H](CO)[C@@H](O)C2(F)F)c(=O)n1 [Gemcitabine] | resistance | completely sensitive | partial resistance | lack of CD11b+Gr1+ cells | partial resistance | – | –
O=P(O)(O)C(Cl)(Cl)P(=O)(O)O [clodronate] | – | – | – | – | – | – | efficacy of anti-VEGF treatment after depletion of TAMs (EL4 tumors [2]): improved
MCP-1: monocyte chemoattractant protein-1 | – | – | – | – | – | angiogenic activity | –
bevacizumab: humanized anti-VEGF monoclonal antibody | – | – | – | – | – | – | single-agent activity [3]: significant single-agent activity; tumor growth and tumor angiogenesis (xenograft models): significantly inhibited tumor growth and reduced tumor angiogenesis
MIP-1alpha: macrophage inflammatory protein-1a (protein, UniProt P10147 24-92, looked up) C-C motif chemokine 3: SLAADTPTACCFSYTSRQIPQNFIADYFETSSQCSKPGVIFLTKRSRQVCADPSEEWVQKYVSDLELSA | – | – | – | – | – | angiogenic activity | –
